pIC50: −log10 of the molar value.
Experiments:
WT-HEK293 cells = assay: Saracatinib uptake in WT-HEK293 cells (HPLC-UV); details: WT-HEK293, 10 µM saracatinib, 10 min
hOCT2 = target: T1, hOCT2 (Homo sapiens, UniProt O15244); assay: Inhibition of ASP+ uptake in hOCT2-HEK293 cells (apparent affinity); assay type: cell-based; design: expressed in transfected cells; host or cells: HEK293; details: hOCT2-HEK293, ASP+ 1 µM
T1 sequence (O15244 1-555): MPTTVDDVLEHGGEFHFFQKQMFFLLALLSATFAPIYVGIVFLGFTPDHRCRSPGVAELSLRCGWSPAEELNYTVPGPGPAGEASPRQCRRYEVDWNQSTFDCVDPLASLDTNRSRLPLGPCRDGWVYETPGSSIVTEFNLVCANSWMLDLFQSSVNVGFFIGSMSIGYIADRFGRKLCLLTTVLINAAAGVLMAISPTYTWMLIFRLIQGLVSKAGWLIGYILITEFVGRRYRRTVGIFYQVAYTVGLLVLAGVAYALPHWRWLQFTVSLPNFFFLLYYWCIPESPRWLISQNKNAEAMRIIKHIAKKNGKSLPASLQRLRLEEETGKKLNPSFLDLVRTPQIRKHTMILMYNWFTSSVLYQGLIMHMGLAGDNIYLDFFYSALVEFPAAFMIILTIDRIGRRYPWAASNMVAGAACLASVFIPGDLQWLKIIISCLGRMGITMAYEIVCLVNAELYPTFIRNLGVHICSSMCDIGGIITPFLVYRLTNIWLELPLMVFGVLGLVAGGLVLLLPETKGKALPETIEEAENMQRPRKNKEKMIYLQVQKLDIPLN

hOCTN2 = target: T2, hOCTN2 (Homo sapiens, UniProt O76082); assay: Saracatinib uptake in hOCTN2-expressing HEK293 cells (HPLC-UV); details: hOCTN2-HEK293, 10 µM saracatinib, 10 min; not significantly different from WT
T2 sequence (O76082 1-557): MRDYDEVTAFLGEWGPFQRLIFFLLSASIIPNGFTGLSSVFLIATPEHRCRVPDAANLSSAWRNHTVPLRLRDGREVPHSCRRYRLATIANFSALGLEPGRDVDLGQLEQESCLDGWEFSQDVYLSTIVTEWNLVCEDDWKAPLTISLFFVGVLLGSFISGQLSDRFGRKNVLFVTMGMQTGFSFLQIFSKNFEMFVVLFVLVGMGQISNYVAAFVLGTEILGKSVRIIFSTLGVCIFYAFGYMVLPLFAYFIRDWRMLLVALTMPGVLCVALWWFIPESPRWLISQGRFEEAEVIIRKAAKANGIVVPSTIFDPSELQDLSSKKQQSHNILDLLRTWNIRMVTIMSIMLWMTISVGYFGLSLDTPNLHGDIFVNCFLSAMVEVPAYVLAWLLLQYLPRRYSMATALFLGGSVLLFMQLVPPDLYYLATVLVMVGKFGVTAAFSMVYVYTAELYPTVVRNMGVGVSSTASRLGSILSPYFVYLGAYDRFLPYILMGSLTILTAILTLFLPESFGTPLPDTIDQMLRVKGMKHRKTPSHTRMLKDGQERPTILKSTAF

hOCT3 = target: T3, hOCT3 (Homo sapiens, UniProt O75751); assay: Saracatinib uptake in hOCT3-overexpressing HEK293 cells (HPLC-UV); details: hOCT3-HEK293, 10 µM saracatinib, 10 min, difference of accumulation at 4 °C and 37 °C
T3 sequence (O75751 1-556): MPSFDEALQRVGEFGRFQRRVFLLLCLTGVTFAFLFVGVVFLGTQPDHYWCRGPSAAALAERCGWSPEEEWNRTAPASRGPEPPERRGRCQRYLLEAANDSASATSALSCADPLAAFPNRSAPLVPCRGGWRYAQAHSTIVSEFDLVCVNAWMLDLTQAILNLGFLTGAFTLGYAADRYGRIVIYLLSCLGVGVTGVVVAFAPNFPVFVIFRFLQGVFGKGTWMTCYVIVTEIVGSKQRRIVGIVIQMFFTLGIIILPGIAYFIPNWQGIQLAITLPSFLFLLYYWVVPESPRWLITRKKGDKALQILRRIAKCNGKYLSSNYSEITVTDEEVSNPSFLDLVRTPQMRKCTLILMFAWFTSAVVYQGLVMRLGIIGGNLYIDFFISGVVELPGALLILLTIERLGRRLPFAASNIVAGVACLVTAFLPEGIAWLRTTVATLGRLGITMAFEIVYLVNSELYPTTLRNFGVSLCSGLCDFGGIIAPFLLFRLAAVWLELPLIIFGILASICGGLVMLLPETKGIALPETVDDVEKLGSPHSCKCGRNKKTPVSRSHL

hOCTN1 = target: T4, hOCTN1 (Homo sapiens, UniProt Q9H015); assay: Inhibition of ASP+ uptake in hOCTN1-HEK293 cells (apparent affinity); assay type: cell-based; design: expressed in transfected cells; host or cells: HEK293, expression induced with 1 mg/l doxycycline; details: hOCTN1-HEK293, ASP+ 1 µM
T4 sequence (Q9H015 1-551): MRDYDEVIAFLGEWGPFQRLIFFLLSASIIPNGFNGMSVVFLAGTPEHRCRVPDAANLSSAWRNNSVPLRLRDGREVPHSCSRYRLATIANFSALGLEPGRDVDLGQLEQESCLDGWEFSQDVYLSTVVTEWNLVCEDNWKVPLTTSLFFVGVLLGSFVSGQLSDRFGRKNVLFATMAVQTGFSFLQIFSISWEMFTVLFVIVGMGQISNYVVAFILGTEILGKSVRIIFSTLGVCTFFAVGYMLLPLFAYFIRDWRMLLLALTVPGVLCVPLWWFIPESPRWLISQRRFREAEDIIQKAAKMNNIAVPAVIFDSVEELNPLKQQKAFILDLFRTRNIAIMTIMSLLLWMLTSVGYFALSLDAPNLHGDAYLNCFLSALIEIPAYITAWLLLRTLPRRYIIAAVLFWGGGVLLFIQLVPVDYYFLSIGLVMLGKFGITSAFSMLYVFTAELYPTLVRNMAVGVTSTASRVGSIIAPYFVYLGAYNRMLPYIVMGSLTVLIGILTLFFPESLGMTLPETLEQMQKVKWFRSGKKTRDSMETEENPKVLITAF

saracatinib accumulation (specific uptake) (WT-HEK293 cells): 1.8 ± 0.5 nmol/mg protein
pIC50 (hOCT2): 6.05
saracatinib accumulation (specific uptake) (hOCTN2): 3.8 ± 1.7 nmol/mg protein
saracatinib accumulation (specific uptake) (hOCT3): 5.7 ± 0.1 nmol/mg protein
pIC50 (hOCTN1): 7.14
Compound: CN1CCN(CCOc2cc(OC3CCOCC3)c3c(Nc4c(Cl)ccc5c4OCO5)ncnc3c2)CC1 [saracatinib, N-(5-chloro-1,3-benzodioxol-4-yl)-7-[2-(4-methylpiperazin-1-yl)ethoxy]-5-(tetrahydro-2H-pyran-4-yloxy)quinazolin-4-amine]
